Source: patent US20080009623A1, “Pyrimidine compounds” (Eisai R&D Management Co., Ltd., priority 2006, published 2008)

Legend:
[1] = molecular target: T1, Human adenosine A1 receptor (Homo sapiens, UniProt P30542); assay: Adenosine A1 receptor binding experiment (3H-CCPA displacement, CHOK1 membrane specimen); settings: calculated from IC50 by Cheng-Prusoff's expression; 3H-CCPA binding, membranes of CHOK1 cells over-expressing human A1, 30° C., 120 minutes; read-out: inhibition constant (Ki value)
T1 construct: expressed in transfected cells; host or cells: CHOK1 cells (membrane specimen)
T1 sequence (P30542 1-326): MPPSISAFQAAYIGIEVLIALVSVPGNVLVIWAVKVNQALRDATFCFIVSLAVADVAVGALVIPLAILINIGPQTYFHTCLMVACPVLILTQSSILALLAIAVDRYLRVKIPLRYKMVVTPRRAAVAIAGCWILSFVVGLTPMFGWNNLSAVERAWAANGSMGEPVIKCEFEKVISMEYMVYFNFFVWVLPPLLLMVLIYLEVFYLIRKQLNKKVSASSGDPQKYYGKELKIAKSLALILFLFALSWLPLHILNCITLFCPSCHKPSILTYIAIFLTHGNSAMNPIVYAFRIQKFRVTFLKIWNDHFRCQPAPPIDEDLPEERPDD
Description: Human adenosine A1 receptor cDNA was subjected to an over-expression in CHOK1 cells and its membrane specimen was suspended in a 20 mM HEPES buffer (containing 10 mM MgCl2 and 100 mM NaCl; pH 7.4) to make the protein concentration of 66.7 μg/mL. To 0.45 mL of this membrane specimen suspension were added 0.025 mL of tritium-labeled 60 nM chlorocyclopentyl adenosine (^3H-CCPA, manufactured by NEN corporation) and 0.025 mL of a solution of the compound of the present invention. The mixture was allowed to stand at 30° C. for 120 minutes, subjected to a quick suction on a glass fiber filter (GF/B; manufactured by Whatman) and immediately washed with 5 mL of water-cooled 50 mM Tris-HCl buffer twice. After that, the glass fiber filter was transferred to a vial bottle, a scintillator was added, and the radioactivity on the filter was measured by a liquid scintillation counter. […]
At this point, total binding amount is a ^3H-CCPA binding radioactivity in the absence of the compound of the present invention, non-specific binding amount is a ^3H -CCPA binding radioactivity in the presence of 100 μM of RPIA ([R]-[1-methyl-2-phenylethyl]adenosine), and binding amount in the presence of the compound of the present invention is a ^3H-CCPA binding radioactivity in the presence of the compound of the present invention of various concentrations.

[2] = molecular target: T2, Human adenosine A2B receptor (Homo sapiens, UniProt P29275); assay: Inhibition of NECA-stimulated cAMP production in A2B receptor expressed cells; format: cell-based; settings: CHOK1 cells over-expressing human A2B; 30 nM NECA; in the presence of Ro-20-1724; cAMP enzyme immunoassay; read-out: 50% inhibitory concentration (IC50) for NECA-stimulated cAMP production
T2 construct: expressed in transfected cells; host or cells: CHOK1 cells
T2 sequence (P29275 1-332): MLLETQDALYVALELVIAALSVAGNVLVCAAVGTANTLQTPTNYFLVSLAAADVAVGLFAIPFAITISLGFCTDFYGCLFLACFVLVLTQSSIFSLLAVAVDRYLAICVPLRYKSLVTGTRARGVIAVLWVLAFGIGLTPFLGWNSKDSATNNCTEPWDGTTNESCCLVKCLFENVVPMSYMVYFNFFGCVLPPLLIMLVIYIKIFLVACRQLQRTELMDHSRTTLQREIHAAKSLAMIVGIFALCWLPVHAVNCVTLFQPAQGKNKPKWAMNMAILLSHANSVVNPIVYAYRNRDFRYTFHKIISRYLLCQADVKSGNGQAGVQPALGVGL
Description: Human adenosine A2B receptor was over-expressed in CHOK1 cells. The cells were uniformly placed on a 24-well plate at the rate of 1.5×10^5 cells/well, incubated for one night and then used for the experiments. The inhibition rate of the compound of the present invention for the amount of cAMP produced by stimulation of 30 nM of 5′-N-ethylcarboxyamideadenosine (NECA; manufactured by Sigma corporation) was evaluated as affinity of the compound of the present invention to the A2B receptor. Thus, after washing adherent cells with 2 mL/well of a Krebs-Ringer buffer (containing 0.1 % BSA; pH7.4) twice, a pre-incubation was carried out at 0.5 mL/well for 30 minutes. After that, […] of a mixed solution containing NECA and the compound of the present invention were added in the presence of Ro-20-1724 (manufactured by RBI corporation) which is a phosphodiesterase inhibitor. 15 minutes after pre-incubation, the reaction was stopped by adding 0.1N HCl to the reaction solution. Measurement of cAMP was carried out using a cAMP enzyme immunoassay kit manufactured by Amersham corporation. Calculation of the inhibition rate of the compound of the present invention to the NECA-stimulated cAMP production was carried out by the following expression. […]

Ki [1]: 157 nM
IC50 [2]: 72.7 nM
Structure (SMILES): Cn1cc(-c2c(O)nc(N)nc2-c2ccco2)ccc1=O [the compound of the present invention, 5-[2-amino-4-(2-furyl)-6-hydroxypyrimidin-5-yl]-1-methylpyridin-2(1H)-one]
